Earlier results in paper PMC7938295 (Biomedical Reports, 2021).

Molecular target: DPP4 (Homo sapiens, UniProt P27487)
Settings: read-out: DPP4 Ki

Sequence of DPP4 (P27487 whole entry): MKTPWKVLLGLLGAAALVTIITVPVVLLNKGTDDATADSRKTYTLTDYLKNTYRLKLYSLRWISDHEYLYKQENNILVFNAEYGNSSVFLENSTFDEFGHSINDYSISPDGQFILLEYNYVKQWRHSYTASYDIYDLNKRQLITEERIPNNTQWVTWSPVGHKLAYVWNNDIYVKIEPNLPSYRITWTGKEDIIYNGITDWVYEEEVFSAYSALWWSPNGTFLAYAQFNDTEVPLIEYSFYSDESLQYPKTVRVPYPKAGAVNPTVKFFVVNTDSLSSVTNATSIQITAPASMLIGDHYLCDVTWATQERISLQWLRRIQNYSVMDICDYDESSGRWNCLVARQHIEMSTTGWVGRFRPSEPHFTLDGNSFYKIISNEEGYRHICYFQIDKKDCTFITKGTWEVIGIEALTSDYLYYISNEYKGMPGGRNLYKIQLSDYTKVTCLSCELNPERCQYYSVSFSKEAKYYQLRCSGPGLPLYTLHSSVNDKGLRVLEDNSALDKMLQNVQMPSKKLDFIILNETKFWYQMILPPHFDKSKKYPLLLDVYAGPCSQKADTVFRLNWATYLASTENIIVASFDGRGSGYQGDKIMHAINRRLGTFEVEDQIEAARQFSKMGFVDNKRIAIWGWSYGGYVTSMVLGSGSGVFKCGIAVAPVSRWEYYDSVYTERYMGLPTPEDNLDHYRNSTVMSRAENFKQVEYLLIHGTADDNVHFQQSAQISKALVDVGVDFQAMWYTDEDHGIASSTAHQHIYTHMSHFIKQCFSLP

Ki: 18.6 µM
Structure (SMILES): O=c1cc(-c2ccccc2)oc2ccccc12 [flavone]
